{"source": "patent US20240299356A1", "about": "“DEVELOPMENT OF PRMT-TARGETING THERAPY TO ENHANCE EGFR-TARGETING DRUG EFFICACY IN NSCLC” (The Regents of the University of California, priority 2021, published 2024)", "molecules": {"B1": {"name": "IFNγ: dimerized soluble cytokine, the only member of the type II class of interferons (protein, UniProt P01579 24-161, looked up)", "Interferon gamma": "QDPYVKEAENLKKYFNAGHSDVADNGTLFLGILKNWKEESDRKIMQSQIVSFYFKLFKNFKDDQSIQKSVETIKEDMNVKFFNSNKKKRDDFEKLTNYSVTDLNVQRKAIHELIQVMAELSPAAKTGKRKRSQMLFRG"}}, "type_in_all_cases": "cell-based", "key": {"PC9 [1]": {"test_system": "PC9", "test": "Drug tolerance assay: surviving fraction of PC9 cells under continuous erlotinib", "source_text": "(§1) FIGS. 1A-1F present exemplary data showing that Type I PRMT inhibition reduced IFNγ signaling-modulated drug tolerance. FIG. 1A present a three-step approach aimed at investigating drug tolerance. FIG. 1B is a line graph showing PC9 cell viabilities under six-day treatment of various doses of erlotinib in the context of IFNγ. […] FIG. 1E is a line graph showing that inhibition of type I PRMTs by MS023 reduced cancer drug tolerance specifically in the IFNγ/STAT1 activation context (normalized to DMSO controls in corresponding IFNγ contexts). Tolerance model for FIG. 1E: PC9 treated with 2.5 μM erlotinib for six days. […] Tolerance model: PC9 treated with 2.5 μM erlotinib.\nFIGS. 4A-4F present exemplary data showing that Type I PRMT inhibition reduces IFNγ signaling-modulated drug tolerance. FIG. 4A is a line graph showing the pro-survival effects of IFNγ in a variety of cell types with the cytotoxic inducers. Six-day tolerance assay in lung cancer cells was performed under 2.5 μM erlotinib or 50 μM carboplatin. FIG. 4B is a line graph showing PC9 cells co-treated with IFNγ and cytotoxic stressors (EGFR inhibitor Gefitinib, PARP inhibitor olaparib, death ligand TRAIL, procaspase-3 activator PAC-1), and cell viabilities were measured by Cell TiterGlo after six days. FIG. 4C is a bar-graph showing PRMT1 knockdown efficiency measured by qPCR after two days of siRNA transfection. FIG. 4D is a line graph showing that inhibition of type I PRMTs by MS023 reduced cancer drug tolerance specifically in the IFNγ/STAT1 activation context (normalized to DMSO control in (−) IFNγ context). Tolerance model for FIG. 4D: PC9 treated with 2.5 μM erlotinib for six days. FIG. 4E is a line graph showing that inhibition of type I PRMTs by GSK3368715 reduced cancer drug tolerance specifically in the IFNγ/STAT1 activation context (normalized to DMSO controls in corresponding IFNγ contexts). FIG. 4F is a line graph line graphs showing that inhibition of type I PRMTs by GSK3368715 reduced cancer drug tolerance specifically in the IFNγ/STAT1 activation context (normalized to DMSO control in (−) IFNγ context). Tolerance model for FIGS. 4E and 4F: PC9 treated with 2.5 μM erlotinib for six days.\nTo investigate drug tolerance, we undertook a three-step approach (FIG. 1A). First, we established reproducible assays to monitor small subpopulations of cancer cells that survive sustained SOC drug treatment. We initially selected the well-established drug-tolerance model provided by the EGFR-mutant lung cancer cell line PC9 and EGFR inhibitor erlotinib^1,2,6. The effect of perturbations to drug tolerance was assessed by quantifying changes to the fraction of the small subpopulation of surviving (drug-tolerant) cells after approximately one week of continuous drug treatment."}, "PC9 [2]": {"test_system": "PC9", "test": "Emergence of drug-tolerant persisters, two-month co-treatment with erlotinib", "conditions": "IFNγ stimulation, PC9, 2.5 μM erlotinib (FIG. 1F)", "source_text": "as §1\nThird, we searched for perturbations that reduce IFNγ-stimulated drug tolerance within a collection of compounds of known biological functions and targets. […] Thus, type I PRMT inhibition is a vulnerability of IFNγ signaling-stimulated drug tolerance."}, "[3]": {"test_system": "PC9 STAT1 knockdown / homozygous knockout cells", "test": "Drug tolerance assay in PC9 with STAT1 knockdown or knockout", "conditions": "PC9 treated with 2.5 μM erlotinib", "method": "(§2) FIG. 2A is a line graph showing that knockout of STAT1 by CRISPR blocked IFNγ-induced change of drug-tolerant subpopulation size. […] FIG. 2D is a line graph showing homozygous knockout of STAT1 by CRISPR (tolerance model: PC9 treated with 2.5 μM erlotinib). […] Relative intensities were measured from by mass spectrometry experiments. FIG. 2H is a diagram of STAT1-mediated drug tolerance and type I PRMT vulnerability to eliminate drug tolerance.\n(§3) FIG. 5C is a line graph showing that STAT1 modulated cancer drug tolerance, and knockdown of STAT1 by siRNA blocked IFNγ-induced change of drug-tolerant subpopulation size. […] FIG. 5E is a bar graph showing that cancer drug treatment (EGFR drugs and other cytotoxic stressors) enhanced STAT1 expression across multiple cell lines. […] Tolerance model for FIG. 5G: PC9 treated with 2.5 μM erlotinib. FIG. 5H presents exemplary data showing differential gene expression in erlotinib-tolerant PC9 cells comparing to parental cells. The top panel of FIG. 5H is a volcano plot in which IRDS genes are shown in black. The bottom panel of FIG. 5H is a line graph showing the accumulative distribution of adjusted p-values of IRDS genes (gray) versus all genes excluding IRDS genes (black). FIG. 5I is a line graph showing the knockdown of STAT1 by siRNA. […] Relative intensities were measured from by mass spectrometry experiments. […]"}, "STAT1": {"test_system": "STAT1", "test": "STAT1 protein expression (Western blot)", "method": "as §2\nFIG. 5C is a line graph showing that STAT1 modulated cancer drug tolerance, and knockdown of STAT1 by siRNA blocked IFNγ-induced change of drug-tolerant subpopulation size. […] FIG. 5E is a bar graph showing that cancer drug treatment (EGFR drugs and other cytotoxic stressors) enhanced STAT1 expression across multiple cell lines. […] Tolerance model for FIG. 5G: PC9 treated with 2.5 μM erlotinib. FIG. 5H presents exemplary data showing differential gene expression in erlotinib-tolerant PC9 cells comparing to parental cells. The top panel of FIG. 5H is a volcano plot in which IRDS genes are shown in black. The bottom panel of FIG. 5H is a line graph showing the accumulative distribution of adjusted p-values of IRDS genes (gray) versus all genes excluding IRDS genes (black). FIG. 5I is a line graph showing the knockdown of STAT1 by siRNA. FIG. 5J is a line graph showing the homozygous knockout of STAT1 by CRISPR. Tolerance model for FIGS. 5I and 5J: PC9 treated with 2.5 μM erlotinib. […] PC9 cells were pretreated with MS023 for one day, followed by co-treatment of erlotinib, and perturbations of protein synthesis or degradation for 16 hours. Cycloheximide (CHX): protein synthesis inhibitor. Bortezomib (Bort): proteasome inhibitor. Ammonium chloride (NH4Cl)): lysosomal function inhibitor. […] FIG. 5P is a bar graph showing type I PRMTs methylate PABP2 at multiple arginine residues. Relative intensities were measured from by mass spectrometry experiments.\nWhat is the connection between type I PRMTs and IFNγ signaling-modulated drug tolerance? […] Previous work in other systems identified STAT1 or its regulator PIAS1 as direct substrates of type I PRMTs^27, though we could not find evidence for their arginine methylation in our system (data not shown)."}, "STAT1 mRNA": {"test_system": "STAT1 mRNA", "test": "STAT1 mRNA level", "conditions": "FIG. 5M", "method": "FIG. 5C is a line graph showing that STAT1 modulated cancer drug tolerance, and knockdown of STAT1 by siRNA blocked IFNγ-induced change of drug-tolerant subpopulation size. […] FIG. 5E is a bar graph showing that cancer drug treatment (EGFR drugs and other cytotoxic stressors) enhanced STAT1 expression across multiple cell lines. […] Tolerance model for FIG. 5G: PC9 treated with 2.5 μM erlotinib. FIG. 5H presents exemplary data showing differential gene expression in erlotinib-tolerant PC9 cells comparing to parental cells. The top panel of FIG. 5H is a volcano plot in which IRDS genes are shown in black. The bottom panel of FIG. 5H is a line graph showing the accumulative distribution of adjusted p-values of IRDS genes (gray) versus all genes excluding IRDS genes (black). FIG. 5I is a line graph showing the knockdown of STAT1 by siRNA. FIG. 5J is a line graph showing the homozygous knockout of STAT1 by CRISPR. Tolerance model for FIGS. 5I and 5J: PC9 treated with 2.5 μM erlotinib. […] PC9 cells were pretreated with MS023 for one day, followed by co-treatment of erlotinib, and perturbations of protein synthesis or degradation for 16 hours. Cycloheximide (CHX): protein synthesis inhibitor. Bortezomib (Bort): proteasome inhibitor. Ammonium chloride (NH4Cl)): lysosomal function inhibitor. […] Relative intensities were measured from by mass spectrometry experiments. […]"}, "PABP2": {"test_system": "PABP2", "test": "PABP2 arginine methylation by mass spectrometry", "conditions": "mass spectrometry (FIGS. 2G, 5P, 5Q)", "method": "as §2, §3"}, "lung cancer cell lines": {"test_system": "lung cancer cell lines", "test": "Drug tolerance in lung cancer cell models", "method": "FIGS. 3A-3D present exemplary data showing that Type I PRMT inhibition enhanced cancer drug efficacy. […] FIGS. 3B-3D present data showing the correlation between endogenous STAT1 expression levels and the efficacy of type I PRMT inhibition. […] Gray dots indicate cell lines that were tested for the efficacies of type I PRMT inhibition (by MS023).\n(§4) Can type I PRMT inhibition provide a general strategy for reducing drug tolerance and enhance efficacies of SOC drugs? STAT1 signaling can be activated by various sources in tumors, including interferon (IFN)-producing immune cells in the tumor microenvironment, endogenous nucleic acids, and cancer therapeutics (FIG. 2H)^31. […] We also observed efficacy of MS023 with gemcitabine in various pancreatic cancer cell lines (FIG. 6A)."}, "[4]": {"test_system": "pancreatic cancer cell lines", "test": "Drug tolerance in gemcitabine-treated pancreatic cancer cell lines", "conditions": "FIG. 6A", "source_text": "FIGS. 6A-6E present exemplary data showing that Type I PRMT inhibition enhances cancer drug efficacy.\nas §4"}, "PD-L1 [5]": {"test_system": "PD-L1", "test": "PD-L1 expression in MGH119", "conditions": "lung cancer cell MGH119 (FIG. 12A)"}, "PD-L1 [6]": {"test_system": "PD-L1", "test": "PD-L1 expression in MIAPACA2", "conditions": "pancreatic cancer cell MIAPACA2 (FIG. 12B)"}, "[7]": {"test_system": "solid tumors with wild type splicing factors (e.g. SRSF2, SF3B1, U2AF1)", "test": "Proliferation of solid tumors with wild type splicing factors", "conditions": "FIG. 9"}, "[8]": {"test_system": "AKT, ERK and STAT3 pathway", "test": "EGFR bypass signaling (AKT, ERK and STAT3 pathway)", "conditions": "FIG. 5A"}}}
{"molecule": "CC(C)Oc1ccc(-c2c[nH]cc2CN(C)CCN)cc1", "note": "[MS023]", "values": [{"measurement": "effect on reducing drug tolerance, dependence on IFNγ", "setting": "PC9 [1]; PC9 treated with 2.5 μM erlotinib for six days, with or without IFNγ (FIGS. 1E, 4D-4F)", "value": "only observed in the presence of IFNγ stimulation"}, {"measurement": "drug tolerance in the PC9/erlotinib model system", "setting": "PC9 [1]; across a wide range of IFNγ concentrations (FIG. 1C)", "value": "reduced drug tolerance"}, {"measurement": "expansion of drug-tolerant cells (persisters)", "setting": "PC9 [2]", "value": "durably reduced the expansion of drug-tolerant cells"}, {"measurement": "efficacy on drug tolerance in STAT1 homozygous knockout cells", "setting": "[3]; CRISPR STAT1 knockout (FIGS. 2D, 5J)", "value": "no efficacy"}, {"measurement": "efficacy on drug tolerance after STAT1 knockdown", "setting": "[3]; STAT1 siRNA (FIG. 5I)", "value": "dramatically compromised"}, {"measurement": "mechanism of the reduction of STAT1 expression", "setting": "STAT1; PC9 pretreated one day, then erlotinib plus cycloheximide, bortezomib or NH4Cl for 16 hours (FIG. 5N)", "value": "alteration in protein synthesis"}, {"measurement": "total STAT1 protein level", "setting": "STAT1; independent of IFNγ or erlotinib, multiple cancer cell lines (FIGS. 2E, 5K, 5L)", "value": "downregulated total STAT1 protein level"}, {"measurement": "STAT1 mRNA", "setting": "STAT1 mRNA", "value": "did not reduce STAT1 mRNA"}, {"measurement": "dimethylation of PABP2 arginine residues", "setting": "PABP2", "value": "reduced the detected dimethylation of PABP2"}, {"measurement": "drug tolerance in osimertinib-treated lung cancers", "setting": "lung cancer cell lines; EGFR mutant cell lines with T790M resistance mutation, IFNγ stimulation (FIG. 3A middle)", "value": "reduced drug tolerance"}, {"measurement": "drug tolerance in carboplatin-treated lung cancers", "setting": "lung cancer cell lines; EGFR wild type cell lines, IFNγ stimulation (FIG. 3A bottom)", "value": "reduced drug tolerance"}, {"measurement": "IC50 on reducing drug tolerance", "setting": "lung cancer cell lines; lung (erlotinib, osimertinib, carboplatin) and pancreatic (gemcitabine) cancer cell models, IFNγ stimulation", "value": "sub- to low-micromolar range"}, {"measurement": "drug tolerance in erlotinib-treated lung cancers", "setting": "lung cancer cell lines; multiple EGFR mutant cell lines, IFNγ stimulation (FIG. 3A top)", "value": "reduced drug tolerance"}, {"measurement": "drug tolerance in gemcitabine-treated pancreatic cancers", "setting": "[4]", "value": "reduced drug tolerance"}, {"measurement": "expression of immune checkpoint protein PD-L1", "setting": "PD-L1 [5]", "value": "reduced the expression"}, {"measurement": "expression of immune checkpoint protein PD-L1", "setting": "PD-L1 [6]", "value": "reduced the expression"}, {"measurement": "proliferation", "setting": "[7]", "value": "reduced the proliferation"}]}
{"molecule": "C#Cc1cccc(Nc2ncnc3cc(OCCOC)c(OCCOC)cc23)c1", "note": "[erlotinib]", "values": [{"measurement": "total STAT1 as opposed to P-STAT1", "setting": "STAT1; combined with IFNγ, PC9 cells (FIG. 5D)", "value": "synergizes with IFNγ to increase total STAT1"}]}
{"molecule": "B1", "values": [{"measurement": "drug tolerance at relatively low doses", "setting": "PC9 [1]; PC9/erlotinib and other models of tolerance (FIGS. 1B, 4A, 4B)", "value": "increase tolerance"}, {"measurement": "drug tolerance at relatively high doses", "setting": "PC9 [1]; PC9/erlotinib, six-day treatment (FIG. 1B)", "value": "decreases drug tolerance"}, {"measurement": "STAT1 signaling (phosphorylation of STAT1, IRF1 transcription, STAT1 upregulation)", "setting": "STAT1; PC9-erlotinib model system (FIG. 5B)", "value": "activates STAT1 signaling"}, {"measurement": "reactivation of major EGFR bypass signaling", "setting": "[8]", "value": "did not observe the reactivation"}]}
